Test results reported in ChEMBL document CHEMBL3217654, “Beta-adrenergic receptor signaling by the isomers of isoproterenol and like drugs in retinal endothelial cells and Muller cells” (Medchemcomm, 2011).
Activity calls are given as the source filed them. The calls are words filed in the database; no cut-off is given here.

Legend:
Rattus norvegicus [1] = species on record: Rattus norvegicus; assay: Antiinflammatory activity in rat rMC-1 cells assessed as decrease of high glucose-induced TNFalpha level at 0.05 to 10 uM after 1 to 24 hrs by ELISA; assay type: functional, cell-based
[2] = Reduction of high glucose-induced apoptosis in REC (unknown origin) assessed as decrease in caspase 3 level at 0.05 to 10 uM after 30 to 60 mins by ELISA; assay type: functional
Rattus norvegicus [3] = species on record: Rattus norvegicus; assay: Reduction of high glucose-induced apoptosis in rat rMC-1 cells assessed as decrease in caspase 3 level at 0.05 to 10 uM after 1 to 24 hrs by ELISA; assay type: functional, cell-based
[4] = Antiinflammatory activity in REC (unknown origin) assessed as increase of high glucose-induced TNFalpha level at 0.05 to 10 uM after 30 to 60 mins by ELISA; assay type: functional
[5] = target: Beta-1 adrenergic receptor (Rattus norvegicus) (UniProt P18090); assay: Displacement of […]-iodocyanopindolol from beta1-adrenergic receptor in rat rMC-1 cells at 0.01 to 10000 nM; assay type: cell-based
Sequence of Beta-1 adrenergic receptor (Rattus norvegicus) (P18090 whole entry, looked up): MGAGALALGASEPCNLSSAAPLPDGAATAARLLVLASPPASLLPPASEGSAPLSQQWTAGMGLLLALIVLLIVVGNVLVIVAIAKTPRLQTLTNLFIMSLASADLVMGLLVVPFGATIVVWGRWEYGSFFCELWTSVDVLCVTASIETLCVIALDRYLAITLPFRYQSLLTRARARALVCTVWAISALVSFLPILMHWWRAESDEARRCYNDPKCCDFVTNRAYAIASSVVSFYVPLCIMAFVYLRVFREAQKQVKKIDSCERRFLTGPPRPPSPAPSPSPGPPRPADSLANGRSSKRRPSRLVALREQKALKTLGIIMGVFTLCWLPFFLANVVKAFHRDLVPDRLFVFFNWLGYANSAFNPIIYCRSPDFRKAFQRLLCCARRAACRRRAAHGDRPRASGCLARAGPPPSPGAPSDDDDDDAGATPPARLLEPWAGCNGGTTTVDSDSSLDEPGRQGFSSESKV

[6] = target: Beta-1 adrenergic receptor (Homo sapiens) (UniProt P08588); assay: Displacement of […]-iodocyanopindolol from beta1-adrenergic receptor in REC (unknown origin) at 0.01 to 10000 nM
Sequence of Beta-1 adrenergic receptor (Homo sapiens) (P08588 whole entry, looked up): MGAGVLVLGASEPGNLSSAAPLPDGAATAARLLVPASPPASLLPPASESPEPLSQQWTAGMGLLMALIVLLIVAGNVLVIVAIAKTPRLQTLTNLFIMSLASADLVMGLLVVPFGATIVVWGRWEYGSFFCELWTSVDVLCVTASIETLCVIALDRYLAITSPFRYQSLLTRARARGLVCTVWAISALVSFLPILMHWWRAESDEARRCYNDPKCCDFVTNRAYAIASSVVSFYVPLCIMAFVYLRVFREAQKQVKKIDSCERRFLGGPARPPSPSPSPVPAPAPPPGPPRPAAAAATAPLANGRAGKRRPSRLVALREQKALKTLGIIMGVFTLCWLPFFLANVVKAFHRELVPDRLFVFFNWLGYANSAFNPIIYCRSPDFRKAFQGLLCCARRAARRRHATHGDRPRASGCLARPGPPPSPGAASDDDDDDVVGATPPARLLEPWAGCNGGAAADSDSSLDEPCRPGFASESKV

[7] = Antiinflammatory activity in REC (unknown origin) assessed as decrease of high glucose-induced TNFalpha level at 0.05 to 10 uM after 30 to 60 mins by ELISA; assay type: functional
[8] = Reduction of high glucose-induced apoptosis in REC (unknown origin) assessed as decrease in caspase 3 level at 10 uM after 15 to 45 mins by ELISA; assay type: functional
[9] = Antiinflammatory activity in REC (unknown origin) assessed as effect on high glucose-induced TNFalpha level at 0.05 to 10 uM after 30 to 60 mins by ELISA; assay type: functional

Compound	Activity (Rattus norvegicus [1])	Activity [2]	Activity (Rattus norvegicus [3])	Activity [4]	inhibition [5]	inhibition [6]	Activity [7]	Activity [8]	Activity [9]
O=C(NC[C@H](O)c1ccc(O)c(O)c1)N1CCOCC1	inactive	inactive	inactive	inactive	–	–	–	–	–
O=C(NCCN(C[C@H](O)c1ccc(O)c(O)c1)C(=O)N1CCOCC1)N1CCOCC1	inactive	Active	inactive	–	inactive	inactive	Active	Active	–
CC(C)NC[C@H](O)c1ccc(O)c(O)c1 (stereo in doubt; R-1)	Active	Active	inactive	–	–	–	–	Active	inactive
Oc1ccc([C@@H](O)CNCCCN2CCOCC2)cc1O	inactive	Active	inactive	–	–	–	–	Active	inactive
CC(C)NC[C@H](O)c1ccc(O)c(O)c1 (stereo in doubt; S-1)	Active	inactive	inactive	–	–	–	–	–	inactive
